The text below walks through data of PMC2584942, “Phase I dose escalation study of telatinib (BAY 57-9352) in patients with advanced solid tumours” (British Journal of Cancer, 2008).

Assay [1] relates to bFGF. The assay is described as follows: Plasma bFGF concentration (ELISA). The assay is classed as in vivo, human. The following applies: after 14 days of multiple dosing. Here is the method: (§1) The effects of telatinib treatment on the plasma concentrations of sVEGFR-2, VEGF and bFGF were determined from blood samples taken at baseline, on day 14 of cycles 1, 2, 4, 6, etc. and at the final visit. Samples were analysed using the relevant quantitative enzyme-linked immunosorbent assay (ELISA) (R&D Systems Europe, Oxford, UK) according to the manufacturer's instructions. DCE-MRI was performed at baseline, on day 2 (only cycle 1), and on day 14 of cycles 1–3 to assess tumour blood flow/tumour vessel permeability in a subgroup of patients ([Morgan et al, 2003]).
(§2) To assess the biological activity of telatinib, plasma concentration analyses for the angiogenic markers VEGF, sVEGFR-2, bFGF, PDGF and […] were performed at baseline and during the course of the study. Furthermore, DCE-MRI measurements were done at baseline, on days 2 and 14 of cycle 1 and on day 14 of cycles 2 and 3. Evaluable DCE-MRI results were available for a subgroup of patients treated at dose levels of 300 mg BID or higher.

In assay [2] the test system is MDA-MB-231 breast carcinoma. Also noted: method as in printed. The following applies: MDA-MB-231 breast carcinoma model; background statement, ref not given; cited from earlier work.
In assay [3] the test system is IL-8. In words: Plasma IL-8 level. To be noted: after 14 days of multiple dosing. The assay is classed as in vivo, human. On the procedure: The relative changes between cycle 1, day 14 and baseline were calculated for VEGF, sVEGFR-2, bFGF, IL-8, tumour blood flow and tumour vessel permeability as measured by DCE-MRI and diastolic blood pressure (Figure 2C). […] The changes in VEGF and sVEGFR-2 plasma levels, the decrease in tumour blood flow and permeability and the increase in diastolic blood pressure were not predictive for the clinical outcome; there were no statistically significant differences in the change of biomarkers for patients who reached a progression-free survival of >3 months compared with those who stopped treatment during the first 3 months due to progressive disease.

The test system of assay [4] is sVEGFR-2. The assay is described as follows: Plasma sVEGFR-2 concentration (ELISA). To be noted: over the course of the study. Type of assay: in vivo, human. Here is the method: as §1, §2
Background: ELISA stands for enzyme-linked immunosorbent assay.

On to `CNC(=O)c1cc(COc2nnc(Nc3ccc(Cl)cc3)c3ccoc23)ccn1` [telatinib], for which the bFGF plasma levels entry in assay [1] is reported as “no relevant changes”. The “tumour growth in vivo” value in assay [2] is given as “potent, dose-dependent reduction in tumour growth”. Moreover, the IL-8 plasma levels result in assay [3] is listed as “no relevant changes”. Moreover, in assay [4], the sVEGFR-2 levels result is given as “dose-dependent decrease”.
